Melting point data for 59 molecules are collected here from patent US6534496B1, “Thermogenic composition and benzazepine thermogenics” (Takeda Chemical Industries, Inc., priority 1997, dated 2003).

Each structure is given as a SMILES string. Structures can show the parent of a compound that is named as a salt.

`Cl.Cl.O=C(CC1CCN(Cc2ccc(F)cc2)CC1)c1ccc2c(c1)CCN(Cc1ccccc1)CC2`: the melting point is 243 to 247 °C (dec.).

For `Cl.Cl.O=C(CCCC1CCN(Cc2ccccc2)CC1)c1ccc2c(c1)CCN(Cc1ccccc1)CC2`, the melting point is 220 to 222 °C (dec.).

Turning to `Cl.Cl.O=C(CCCC1CCN(Cc2ccc(F)cc2)CC1)c1ccc2c(c1)CCN(Cc1ccccc1)CC2`, the melting point is 226 to 229 °C (dec.).

As to `Cc1ccc(CN2CCC(CC(=O)c3ccc4c(c3)CCN(Cc3ccccc3)CC4)CC2)cc1.Cl.Cl`, the melting point was in the range of 229 to 233 °C.

For `Cc1ccccc1CN1CCC(CCCC(=O)c2ccc3c(c2)CCN(Cc2ccccc2)CC3)CC1.Cl.Cl`, the melting point was 226 to 229 °C (dec.).

Regarding `Cc1cccc(CN2CCC(CCCC(=O)c3ccc4c(c3)CCN(Cc3ccccc3)CC4)CC2)c1.Cl.Cl`, the melting point was 222 to 225 °C (dec.).

As for `Cc1ccc(CN2CCC(CCCC(=O)c3ccc4c(c3)CCN(Cc3ccccc3)CC4)CC2)cc1.Cl.Cl`, the melting point was 207 to 210 °C (dec.).

`Cc1ccccc1CN1CCc2ccc(C(=O)CCCC3CCN(Cc4ccc(F)cc4)CC3)cc2CC1.Cl.Cl` yielded a melting point of 197 to 200 °C.

In turn, `Cc1ccc(CN2CCC(CCCC(=O)c3ccc4c(c3)CCN(Cc3ccc([N+](=O)[O-])cc3)CC4)CC2)cc1.Cl.Cl` showed a melting point of 208 to 211 °C.

Take `Cc1ccc(CN2CCC(CCCC(=O)c3ccc4c(c3)CCN(Cc3ccc(C#N)cc3)CC4)CC2)cc1.Cl.Cl`: the melting point was 206 to 209 °C (dec.).

As for `CC(=O)N1CCc2ccc(C(=O)CCCC3CCN(Cc4ccccc4C)CC3)cc2CC1.Cl`, the melting point was 93 to 94 °C.

Regarding `Cl.O=C(CCC1CCN(C(=O)c2ccccc2)CC1)c1ccc2c(c1)CCN(Cc1ccccc1)CC2`, the melting point was in the range of 118 to 121 °C.

With `COc1ccc(CN2CCc3cc(C(=O)CCC4CCN(Cc5ccccc5)CC4)ccc32)cc1.O=C(O)/C=C/C(=O)O`, the melting point lay within 95 to 98 °C.

`CC(=O)N1CCC(CCC(=O)c2ccc3c(c2)CN(Cc2ccccc2)c2ccccc2CC3)CC1.Cl`: the melting point lay within 155 to 158 °C.

Molecule `CC(=O)N1CCC(CCC(=O)c2ccc3c(c2)CN(Cc2ccc(F)cc2)CCO3)CC1.Cl` gave a melting point of 186 to 188 °C.

`COc1ccc(CN2CCc3ccc(C(=O)CCC4CCN(C(=O)c5ccc(-c6ccccc6)cc5)CC4)cc3CC2)cc1.Cl` displayed a melting point of 212 to 215 °C.

In turn, `O=C(CCC1CCN(Cc2cccnc2)CC1)c1ccc2c(c1)CN(Cc1ccccc1)CCO2` (as salt: hydrochloride) displayed a melting point of 228 to 230 °C.

For `CCOC(=O)C1(C(=O)OCC)Oc2ccc(CN3CCC(CCC(=O)c4ccc5c(c4)CN(Cc4ccc(F)cc4)CCO5)CC3)cc2O1` (as salt: hydrochloride), the melting point is 199 °C (dec.).

`O=C(O)COc1cccc(CN2CCC(CCC(=O)c3ccc4c(c3)CN(Cc3ccc(F)cc3)CCO4)CC2)c1` (as salt: hydrochloride) returned a melting point of 201 to 204 °C.

As to `CC(c1ccccc1)N1CCC(CCC(=O)c2ccc3c(c2)CN(Cc2ccc(F)cc2)CCO3)CC1` (centres unmarked) (as salt: hydrochloride), the melting point was 235 to 237 °C.

In turn, `Cc1cccc(CN2CCC(CCCC(=O)c3ccc4c(c3)CCN(Cc3ccccc3C)CC4)CC2)c1` (as salt: hydrochloride) had a melting point of 179 to 182 °C.

For the molecule `O=C(CCC1CCN(Cc2cccc(C(F)(F)F)c2)CC1)c1ccc2c(c1)CN(Cc1ccccc1)CCO2` (as salt: hydrochloride), the melting point was in the range of 235 to 237 °C.

As for `O=C(CCC1CCN(Cc2ccc(C(F)(F)F)cc2)CC1)c1ccc2c(c1)CN(Cc1ccccc1)CCO2` (as salt: hydrochloride), the melting point lay within 239 to 241 °C.

Take `Cc1ccccc1CN1CCc2ccc(C(=O)CCCC3CCN(Cc4ccccc4Cl)CC3)cc2CC1` (as salt: hydrochloride): the melting point lay within 165 to 168 °C.

Consider `O=C(CCC1CCN(Cc2ccc3c(c2)OCO3)CC1)c1ccc2c(c1)CN(Cc1ccccc1)CCO2` (as salt: hydrochloride), for which the melting point lay within 233 to 235 °C.

Turning to `O=C(CCCC1CCN(Cc2cccc(F)c2)CC1)c1ccc2c(c1)CCN(Cc1ccccc1)CC2` (as salt: hydrochloride), the melting point was 245 to 248 °C (dec.).

In the case of `O=C(CCCC1CCN(Cc2ccc([N+](=O)[O-])cc2)CC1)c1ccc2c(c1)CCN(Cc1ccccc1)CC2` (as salt: hydrochloride), the melting point is 242 to 247 °C (dec.).

In the case of `O=C(CCC1CCN(Cc2cc([N+](=O)[O-])cc([N+](=O)[O-])c2)CC1)c1ccc2c(c1)CN(Cc1ccccc1)CCO2` (as salt: hydrochloride), the melting point was 232 °C (dec.).

Consider `O=C(CCC1CCN(Cc2cc(F)cc(F)c2)CC1)c1ccc2c(c1)CN(Cc1ccccc1)CCO2` (as salt: hydrochloride), for which the melting point was in the range of 241 to 243 °C.

With `COC(=O)c1ccc(CN2CCC(CCCC(=O)c3ccc4c(c3)CCN(Cc3ccccc3)CC4)CC2)cc1` (as salt: hydrochloride), the melting point was 239 to 244 °C (dec.).

The molecule `CS(=O)(=O)Nc1cccc(CN2CCC(CCCC(=O)c3ccc4c(c3)CCN(Cc3ccccc3)CC4)CC2)c1` (as salt: hydrochloride) gave a melting point of 158 to 164 °C.

The molecule `Cc1cccc(CN2CCc3ccc(C(=O)CCCC4CCN(Cc5ccc(F)cc5)CC4)cc3CC2)c1` (as salt: hydrochloride) came in with a melting point of 209 to 212 °C.

The molecule `Cc1ccc(CN2CCC(CCCC(=O)c3ccc4c(c3)CCN(Cc3cccc([N+](=O)[O-])c3)CC4)CC2)cc1` (as salt: hydrochloride) yielded a melting point of 172 to 174 °C.

For `Cc1ccc(CN2CCC(CCCC(=O)c3ccc4c(c3)CCN(Cc3ccccc3Cl)CC4)CC2)cc1` (as salt: hydrochloride), the melting point is 174 to 178 °C.

`Cc1ccc(CN2CCC(CCCC(=O)c3ccc4c(c3)CCN(Cc3ccc(Cl)cc3)CC4)CC2)cc1` (as salt: hydrochloride) registered a melting point of 230 to 234 °C.

For the molecule `O=C(CCC1CCNCC1)c1ccc2c(c1)CN(Cc1ccc(F)cc1)CCC2` (as salt: hydrochloride), the melting point lay within 245 to 247 °C.

`O=C(CCC1CCN(Cc2cccc(C(F)(F)F)c2)CC1)c1ccc2c(c1)CN(Cc1ccc(F)cc1)CCC2` (as salt: hydrochloride) came in with a melting point of 197 to 199 °C.

As for `COC(=O)c1ccccc1CN1CCc2ccc(C(=O)CCCC3CCN(Cc4ccccc4C)CC3)cc2CC1` (as salt: hydrochloride), the melting point was 111 to 113 °C.

The molecule `O=C(CCCC1CCN(Cc2ccccc2Cl)CC1)c1ccc2c(c1)CCN(Cc1ccc(F)cc1F)CC2` (as salt: hydrochloride) showed a melting point of 193 to 196 °C.

Molecule `Cc1ccccc1CN1CCC(CCCC(=O)c2ccc3c(c2)CCN(Cc2ccc(F)cc2F)CC3)CC1` (as salt: hydrochloride) gave a melting point of 208 to 210 °C.

For the molecule `CC(=O)Nc1ccccc1CN1CCC(CCCC(=O)c2ccc3c(c2)CCN(Cc2ccccc2C)CC3)CC1` (as salt: hydrochloride), the melting point was in the range of 172 to 178 °C.

For `Cc1ccccc1CN1CCc2ccc(C(=O)CCCC3CCN(Cc4ccccc4N)CC3)cc2CC1` (as salt: hydrochloride), the melting point fell in the range of 230 to 235 °C.

For the molecule `Cc1ccccc1CN1CCc2ccc(C(=O)CCCC3CCN(Cc4ccccc4NS(C)(=O)=O)CC3)cc2CC1` (as salt: hydrochloride), the melting point is 185 to 195 °C (dec.).

Regarding `COC(=O)c1ccccc1CN1CCC(CCCC(=O)c2ccc3c(c2)CCN(Cc2ccccc2C)CC3)CC1` (as salt: hydrochloride), the melting point was in the range of 189 to 192 °C.

With `O=C(CCC1CCNCC1)c1ccc2c(c1)CCN(Cc1ccc(F)cc1)CC2` (as salt: hydrochloride), the melting point was 225 to 227 °C (dec.).

With `COc1ccc(CN2CCC(CCC(=O)c3ccc4c(c3)CCN(Cc3ccc(F)cc3)CC4)CC2)cc1` (as salt: hydrochloride), the melting point was 235 to 238 °C (dec.).

In turn, `COc1ccc(CN2CCC(CCC(=O)c3ccc4c(c3)CCN(Cc3ccc(F)cc3)CC4)CC2)cc1OC` (as salt: hydrochloride) gave a melting point of 199 to 203 °C.

For `O=C(CCC1CCN(Cc2ccccc2)CC1)c1ccc2c(c1)CCN(Cc1ccc(F)cc1)CC2` (as salt: hydrochloride), the melting point is 217 to 220 °C.

`CC(C)(C)c1ccc(CN2CCC(CCC(=O)c3ccc4c(c3)CCN(Cc3ccc(F)cc3)CC4)CC2)cc1` (as salt: hydrochloride): the melting point is 230 to 236 °C (dec.).

In the case of `CCOC(=O)c1ccc(CN2CCC(CCC(=O)c3ccc4c(c3)CCN(Cc3ccc(F)cc3)CC4)CC2)cc1` (as salt: hydrochloride), the melting point was 212 to 218 °C (dec.).

`Cc1ccc(CN2CCC(CCC(=O)c3ccc4c(c3)CN(Cc3ccccc3)CCO4)CC2)cc1` (as salt: hydrochloride) showed a melting point of 236 to 238 °C.

For `O=C(CCC1CCN(Cc2ccc(O)cc2)CC1)c1ccc2c(c1)CCN(Cc1ccc(F)cc1)CC2` (as salt: hydrochloride), the melting point is 166 to 169 °C.

The molecule `O=C(CCC1CCN(Cc2ccccc2F)CC1)c1ccc2c(c1)CN(Cc1ccccc1)CCO2` (as salt: hydrochloride) displayed a melting point of 242 to 244 °C.

As to `O=C(CCC1CCN(Cc2cccc(F)c2)CC1)c1ccc2c(c1)CN(Cc1ccccc1)CCO2` (as salt: hydrochloride), the melting point was in the range of 241 to 243 °C.

As for `O=C(CCC1CCN(Cc2ccccc2C(F)(F)F)CC1)c1ccc2c(c1)CN(Cc1ccc(F)cc1)CCO2` (as salt: hydrochloride), the melting point was 203 to 204 °C.

In turn, `Cc1ccc(CN2CCC(CCC(=O)c3ccc4c(c3)CN(Cc3ccc(F)cc3)CCO4)CC2)cc1` (as salt: hydrochloride) displayed a melting point of 240 to 242 °C.

Turning to `O=C(CCC1CCN(Cc2ccccn2)CC1)c1ccc2c(c1)CN(Cc1ccccc1)CCO2` (as salt: hydrochloride), the melting point fell in the range of 238 to 240 °C.

Turning to `COc1ccc(CN2CCc3ccc(C(=O)CCC4CCN(Cc5ccc(F)cc5)CC4)cc3CC2)cc1` (as salt: hydrochloride), the melting point was 218 to 226 °C (dec.).

For `COc1ccc(CN2CCc3ccc(C(=O)CCC4CCN(Cc5ccc(-c6ccccc6)cc5)CC4)cc3CC2)cc1` (as salt: hydrochloride), the melting point was 220 to 225 °C (dec.).
